The target of series [1] is T1, TRPV2 (Rattus norvegicus, UniProt Q9WUD2, E609Q).
T1 construct: rat TRPV2 expressed in HEK293T cells
T1 sequence (Q9WUD2 1-761 E609Q): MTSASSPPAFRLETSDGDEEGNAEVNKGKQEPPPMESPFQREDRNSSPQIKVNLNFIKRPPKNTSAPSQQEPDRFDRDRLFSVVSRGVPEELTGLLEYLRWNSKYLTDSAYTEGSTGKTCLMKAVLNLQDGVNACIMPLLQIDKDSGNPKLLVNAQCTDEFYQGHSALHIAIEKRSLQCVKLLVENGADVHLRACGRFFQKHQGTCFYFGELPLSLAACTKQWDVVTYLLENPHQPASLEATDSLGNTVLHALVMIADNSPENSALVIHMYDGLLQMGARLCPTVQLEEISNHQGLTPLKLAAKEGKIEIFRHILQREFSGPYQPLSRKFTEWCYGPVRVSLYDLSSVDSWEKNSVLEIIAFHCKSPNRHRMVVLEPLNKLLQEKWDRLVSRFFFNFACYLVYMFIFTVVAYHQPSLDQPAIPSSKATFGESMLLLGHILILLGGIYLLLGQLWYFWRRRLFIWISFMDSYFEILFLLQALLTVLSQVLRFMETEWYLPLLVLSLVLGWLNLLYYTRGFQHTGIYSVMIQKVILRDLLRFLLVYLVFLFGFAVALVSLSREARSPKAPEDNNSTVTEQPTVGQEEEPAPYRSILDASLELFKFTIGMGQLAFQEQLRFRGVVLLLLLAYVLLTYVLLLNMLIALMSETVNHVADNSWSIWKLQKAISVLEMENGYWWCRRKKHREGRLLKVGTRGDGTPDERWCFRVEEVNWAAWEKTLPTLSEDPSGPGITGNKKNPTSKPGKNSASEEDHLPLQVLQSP
As to the kind of experiment: whole-cell patch clamp, inhibition of 2-APB-induced currents. Type of series: cell-based.

The target of series [2] is T2, TRPV5 (Oryctolagus cuniculus, UniProt Q9XSM3).
T2 construct: wild-type rabbit TRPV5, C-terminal 1D4 tag, in nanodiscs
T2 sequence (Q9XSM3 1-730): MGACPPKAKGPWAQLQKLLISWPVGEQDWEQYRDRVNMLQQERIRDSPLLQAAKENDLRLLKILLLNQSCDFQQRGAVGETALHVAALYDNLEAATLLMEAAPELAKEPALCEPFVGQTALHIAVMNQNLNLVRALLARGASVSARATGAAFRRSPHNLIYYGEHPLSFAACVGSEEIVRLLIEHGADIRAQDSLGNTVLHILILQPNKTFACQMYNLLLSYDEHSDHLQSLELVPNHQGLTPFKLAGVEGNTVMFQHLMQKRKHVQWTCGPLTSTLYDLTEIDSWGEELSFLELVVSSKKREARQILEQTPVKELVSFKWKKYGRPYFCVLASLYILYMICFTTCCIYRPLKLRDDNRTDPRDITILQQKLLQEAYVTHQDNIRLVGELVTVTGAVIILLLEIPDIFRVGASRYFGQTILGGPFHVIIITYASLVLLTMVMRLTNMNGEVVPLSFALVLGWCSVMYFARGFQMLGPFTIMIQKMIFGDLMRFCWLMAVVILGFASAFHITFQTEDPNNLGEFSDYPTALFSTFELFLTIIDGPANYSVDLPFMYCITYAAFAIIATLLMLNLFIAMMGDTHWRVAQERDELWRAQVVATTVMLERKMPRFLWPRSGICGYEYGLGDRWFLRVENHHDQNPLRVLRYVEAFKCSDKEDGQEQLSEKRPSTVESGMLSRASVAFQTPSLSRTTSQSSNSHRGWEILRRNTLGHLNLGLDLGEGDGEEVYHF
Briefly: cryo-EM structures (8FFQ with PI([…])P2 added, […] Å; 8FFN without, […] Å); IC50 from whole-cell patch clamp in HEK293 cells. Type of series: cell-based. (The patch-clamp technique gives a direct electrical read-out from membranes.)

Series [3] deals with T3, TRPV5 (Oryctolagus cuniculus, UniProt Q9XSM3, T539A).
T3 construct: rabbit TRPV5 expressed in HEK293T cells
T3 sequence (Q9XSM3 1-730 T539A): T2 sequence (Q9XSM3 1-730) with T539A
Briefly: whole-cell patch clamp, % inhibition at […] RR ([…] at […]). Type of series: cell-based.

Series [4] deals with T4, TRPV2 (Rattus norvegicus, UniProt Q9WUD2).
T4 construct: wild-type rat TRPV2, C-terminal 1D4 tag, in nanodiscs
T4 sequence (Q9WUD2 1-761): T1 sequence (Q9WUD2 1-761 E609Q) with Q609E
Briefly: cryo-EM structure ([…] Å, with 2-APB); IC50 from whole-cell patch clamp in HEK293T cells. Type of series: cell-based.

The target of series [5] is T5, TRPV2 (Rattus norvegicus, UniProt Q9WUD2, M607I).
T5 construct: rat TRPV2 expressed in HEK293T cells
T5 sequence (Q9WUD2 1-761 M607I): T1 sequence (Q9WUD2 1-761 E609Q) with M607I, Q609E
As to the kind of experiment: whole-cell patch clamp, inhibition of 2-APB-induced currents. Type of series: cell-based.

Series [6] deals with T4, TRPV2. Briefly: cryo-EM structure ([…] Å, with RR); activates whole-cell currents at […].
Series [7] deals with the molecule itself. As to the kind of experiment: cryo-EM structure; channel tetramer in MSP2N2/soy polar lipid nanodiscs, 20 mM Hepes pH 8.0, 150 mM NaCl, 2 mM TCEP; with 1 mM ruthenium red, with or without activator (1 mM 2-APB for TRPV2; 400 uM diC8-PI(4,5)P2 for TRPV5).

Positions count from the first letter of the chain named.

A word on the IC50: it is the concentration needed to halve the response being measured. A lower IC50 goes with higher potency.

For `N.N.N.N.N.N.N.N.N.N.N.N.N.N.[Cl-].[Cl-].[Cl-].[Cl-].[Cl-].[Cl-].[O-2].[O-2].[Ru+3].[Ru+3].[Ru+4]` [RR, ruthenium red], the concentration for half-maximal inhibition (IC50) against TRPV2 [1] was 149 ± 111 µM; against TRPV5 [2], 0.0137 ± 0.0044 µM; at TRPV2 [4] it was 0.159 ± 0.047 µM; against TRPV2 [5], 29 ± 5 µM. Moreover, the “% inhibition at 10 μM” value on TRPV5 [3] turned out to be 94.5 ± 1.5.
As for `NCCOB(c1ccccc1)c1ccccc1` [2-APB, 2-aminoethoxydiphenyl borate], the cryo-EM structural observation entry at TRPV2 [6] is “clear three-lobed density for 2-APB coordinated by His521 and Arg539”.

B1: wild-type rabbit TRPV5 (natural protein)
chain: T2 sequence (Q9XSM3 1-730)
notes: Transient receptor potential vanilloid 5 (TRPV5), rabbit, wild type; Homotetramer ('TRPV tetramer', C4 symmetry); No step that removes the 1D4 tag is described; also called rbTRPV5; TRPV5RR; source: S. cerevisiae BJ5457, purified (1D4 antibody beads, eluted with 1D4 peptide; reconstituted into MSP2N2 nanodiscs; SEC)
Regarding B1, the binding result in series [7] was “binds”.
